According to patent US6465716B2, “Nod factor binding protein from legume roots” (The Regents of the University of California, priority 1997, dated 2002):
One block for each molecule: values may come before it.

Legend:
NBP46 [1] = biological target: T1, NBP46 (Vigna unguiculata, UniProt Q9XFC9); assay: phosphatase (phosphohydrolase) assay of NBP46; type: biochemical, Dolichos biflorus; settings: in words; for hydrolysis of phosphate from substrate by NBP46 (phosphohydrolase activity): substrate specificity
Procedure: (§1) The sequence similarities found between NBP46 and the above enzymes prompted the testing of NBP46 for phosphohydrolase activity. The reactions were conducted in 300 μL of 60 mM MOPS, pH 6.8, containing 1 mM MgCl2 in a microtiter plate using a multichannel pipette. At various time points up to 4 minutes, 30 or 60 μL aliquots were removed and assayed for inorganic phosphate by a photometric microtiter assay (Drueckes, P., et al., Anal. Biochem. 230:173 (1995)). Conditions were chosen so that less than 10% of the total substrate was converted to product, and the initial velocity (v) was determined from the above rate measurements.
(§2) N-BP46 (201 ng/ml) was incubated at 25° C. in the presence of various concentrations of substrate in a final volume of 100 μl of 60 mM MOPS, pH 6.8, containing 1 mM MgCl2. The reactions were conducted in a microtiter plate using a multichannel pipette. At various time points, 30 μl aliquots were removed and assayed for inorganic phosphate by a photometric microtiter assay (Drueckes, P. et al. Anal. Biochem. 230:173 (1995)), modified by using four parts ammonium molybdate reagent to one part 10% ascorbate for the reagent mixture. Conditions were chosen so that less than 10% of the total substrate was converted to product.

NBP46 [2] = biological target: T1, NBP46; assay: competitive solid phase assay: inhibition of binding of 125I-NBP46 to HBG A+H-Sepharose; set-up: species or system Dolichos biflorus; settings: up to 50 mM concentrations
From the text: In a preferred embodiment, a competitive solid phase assay is used to measure NBP46 activity (Etzler, M. E., Glycoconj. J. 11:395 (1994)). This assay measures the ability of various ligands to inhibit the binding of labeled NBP46 protein to pronase-digested hog gastric mucin blood group A+H substance (HBG A+H) conjugated to Sepharose® (Quinn, J. M. & Etzler, M. E., Arch. Biochem. Biophys. 258:535 (1987)).
The monomeric nature of NBP46 in solution precluded the use of conventional precipitin or agglutination assays in determining the carbohydrate binding specificity of this lectin. Therefore a complex carbohydrate binding assay was employed (Etzler, M. E., Glycoconj. J. 11:395 (1994)).
Hog blood group A+H substance was isolated from hog gastric mucin (Etzler, M. E., Glyconj. J. 11:395 (1994)) and de-N-acetylated as described in Etzler, M. E., et al., Arch. Biochem. Biophys. 141:588 (1970). After incubation at room temperature overnight, binding was measured as previously described (Etzler, M. E., Glyconj. J. 11:395 (1994)).

NBP46 [3] = biological target: T1, NBP46; assay: competitive binding assay with chitin as solid phase: inhibition of binding of 125I-NBP46 to chitin; set-up: species or system Dolichos biflorus; settings: for inhibition of binding of 125I-NBP46 to chitin: relative inhibition, in words
Procedure: B. japonicum USDA110 Nod factor (^▪); R. sp. NGR234(NGRA) Nod factor (^▴); R. sp. NGR234(NGRB) Nod factor (∇); R. meliloti Nod factor (^●), N-acetylglucosamine (□), chitin disaccharide (^▾); chitin tetrasaccharide (Δ); chitin pentasaccharide (♦), chitin hexasaccharide (O).
Using chitin as a solid phase, a competitive binding assay was utilized to examine the carbohydrate specificity of this protein (FIG. 3).
Solid phase binding assays were conducted using iodinated NBP46 and purified shrimp chitin powder (Sigma Chemical Company, St. Louis, Mo.), which was N-acetylated prior to use with 15 mM acetic anhydride in 0.5 M NaHCO3 for one hour at room temperature. The assays were conducted in a final volume of 100 μl of 10 mM MOPS buffer, pH 7.2, containing 0.02% Tween-20 and 0.01% NaN3.

[4] = substrate: Nc1ncnc2c1ncn2[C@@H]1O[C@H](COP(=O)(O)OP(=O)(O)O)[C@@H](O)[C@H]1O; assay: phosphatase (phosphohydrolase) assay of NBP46; type: biochemical, Dolichos biflorus; settings: other: 60 mM MOPS, pH 6.8, 1 mM MgCl2, 25.0 °C
Procedure: as §1, §2

Molecule: Nc1ccn([C@@H]2O[C@H](COP(=O)(O)OP(=O)(O)OP(=O)(O)O)[C@@H](O)[C@H]2O)c(=O)n1 [CTP]
- hydrolysis of phosphate from substrate by NBP46 (phosphohydrolase activity) (NBP46 [1]): broad specificity for nucleotide triphosphates

- inhibition of binding of 125I-NBP46 to HBG A+H-Sepharose (NBP46 [2]): no significant inhibition
Molecule: CC(=O)N[C@H]1C(O)O[C@H](CO)[C@H](O)[C@@H]1O (stereo partly drawn) [N-acetyl-D-galactosamine]

- inhibition of NBP46 binding to chitin (NBP46 [3]; concentrations up to 1.2 mM): No significant inhibition
Molecule: CCCCCC/C=C\CCCCCCCCCC(=O)O [cis-vaccenic acid]

Molecule: O=c1ccn([C@@H]2O[C@H](COP(=O)(O)OP(=O)(O)OP(=O)(O)O)[C@@H](O)[C@H]2O)c(=O)[nH]1 [UTP]
- hydrolysis of phosphate from substrate by NBP46 (phosphohydrolase activity) (NBP46 [1]): broad specificity for nucleotide triphosphates

- inhibition of binding of 125I-NBP46 to HBG A+H-Sepharose (NBP46 [2]): no significant inhibition
- inhibition of NBP46 binding to chitin (NBP46 [3]; concentrations up to 50 mM): No significant inhibition
Molecule: C[C@H](O)[C@@H](O)[C@@H](O)[C@H](O)C=O [L-fucose]

Molecule: CC(=O)NC1C(O)OC(CO)C(OC2OC(CO)C(OC3OC(CO)C(OC4OC(CO)C(OC5OC(CO)C(OC6OC(CO)C(O)C(O)C6NC(C)=O)C(O)C5NC(C)=O)C(O)C4NC(C)=O)C(O)C3NC(C)=O)C(O)C2NC(C)=O)C1O (stereo not drawn) [chitin hexasaccharide]
- inhibition of binding of 125I-NBP46 to chitin (NBP46 [3]): slightly better inhibitors than the disaccharide

Molecule: CC(=O)N[C@@H]1[C@@H](O)[C@H](O[C@@H]2O[C@H](CO)[C@@H](O[C@@H]3O[C@H](CO)[C@@H](O[C@@H]4O[C@H](CO)[C@@H](O[C@@H]5O[C@H](CO)[C@@H](O)[C@H](O)[C@H]5NC(C)=O)[C@H](O)[C@H]4NC(C)=O)[C@H](O)[C@H]3NC(C)=O)[C@H](O)[C@H]2NC(C)=O)[C@@H](CO)O[C@H]1O [chitin pentasaccharide]
- inhibition of binding of 125I-NBP46 to chitin (NBP46 [3]): slightly better inhibitors than the disaccharide

Molecule: Nc1nc2c(ncn2[C@@H]2O[C@H](COP(=O)(O)OP(=O)(O)OP(=O)(O)O)[C@@H](O)[C@H]2O)c(=O)[nH]1 [GTP]
- hydrolysis of phosphate from substrate by NBP46 (phosphohydrolase activity) (NBP46 [1]): broad specificity for nucleotide triphosphates

- hydrolysis of phosphate from substrate by NBP46 (phosphohydrolase activity) (NBP46 [1]): no activity
Molecule: Nc1ncnc2c1ncn2[C@@H]1O[C@H](COP(=O)(O)O)[C@@H](O)[C@H]1O [AMP]

Molecule: O=P(O)(O)OP(=O)(O)O [pyrophosphate]
- hydrolysis of phosphate from substrate by NBP46 (phosphohydrolase activity) (NBP46 [1]): no activity

- hydrolysis of phosphate from substrate by NBP46 (phosphohydrolase activity) (NBP46 [1]): no activity
Molecule: O=C[C@H](O)[C@@H](O)[C@H](O)[C@H](O)COP(=O)(O)O [glucose-6-phosphate]

Molecule: Nc1ncnc2c1ncn2[C@@H]1O[C@H](COP(=O)(O)OP(=O)(O)OP(=O)(O)O)[C@@H](O)[C@H]1O [ATP]
- hydrolysis of phosphate from substrate by NBP46 (phosphohydrolase activity) (NBP46 [1]): catalyzes the hydrolysis of phosphate

Molecule: CC(=O)N[C@@H]1[C@@H](O)[C@H](O)[C@@H](CO)O[C@H]1O [N-acetyl-D-glocosamine]
- phosphatase activity / Vmax of NBP46 after preincubation with ligand (NBP46 [1]; concentration range as worded): increase in enzyme activity is also obtained with low millimolar concentrations
- inhibition of binding of 125I-NBP46 to chitin (NBP46 [3]): Inhibition of binding was obtained with high concentrations

- hydrolysis of phosphate from substrate by NBP46 (phosphohydrolase activity) (NBP46 [1]): catalyzes the hydrolysis of phosphate
Molecule: Nc1ncnc2c1ncn2[C@@H]1O[C@H](COP(=O)(O)OP(=O)(O)O)[C@@H](O)[C@H]1O [ADP]

Molecule: CC(=O)N[C@H]1[C@H](O[C@H]2[C@H](O)[C@@H](NC(C)=O)C(O)O[C@@H]2CO)O[C@H](CO)[C@@H](O)[C@@H]1O (stereo partly drawn) [chitin disaccharide]
- inhibition of binding of 125I-NBP46 to chitin (NBP46 [3]): approximately ten-fold better inhibition than the monosaccharide

B1: NBP46 (Vigna unguiculata subsp. cylindrica) (protein)
chain: QYVGNSILLNHRKILPNQELLTSYAVIFDAGSSGSRVHVFNFDQNLDLLHIGNDLEFTKKIKPGLSSYADKPEKAAESLIPLLEEAEDVVPEELHPKTPLKLGATAGLRLLDGDAAEKILQAVREMFRNRSSLSVQPDAVSVIDGTQEGSYLWVTVNYLLGKLGKKFTKTVGVIDLGGASVQMAYAVSRNTAKNAPKPPQGEDPYMKKLVLKGKKYDLYVHSYLRYGNDAARVKIFKTTDGAASPCLLAGYEDIYRYSGESYNIYGPTSGANFNECRDLALQILRLNEPCSHENCTFGGIWDGGKGSGQKNLVVTSAFYYRSSEVGFVTPPNSKNRPLDFETAAKQACSLTFEEAKSTFPNVEKDKLPFVCVDFTYQYTLLVDGFGLDPEQEITVAEGIEYQDAIVETAWPLGTAIEAISSLPKFNRLMYFI
- Km [4]: 615 µM
